Our source for the IC50 values is patent US12606566B2, “Substituted cyclopenta[4,5]pyrrolo[1,2-a]pyrazines as bruton's tyrosine kinase inhibitors” (Shanghai Synergy Pharmaceutical Sciences Co., Ltd., priority 2020, dated 2026).

The target of one experiment is BTK kinase (Homo sapiens, UniProt Q06187). Briefly: BTK kinase inhibitory activity, mobility shift method. To be noted: compound co-incubated with the enzyme for 30 minutes. The format is biochemical. The method, then: The BTK kinase inhibitory activity of the compound was determined using a mobility shift method with the reaction system (kinase solution, ATP, kinase substrate2). The compound was co-incubated with the enzyme for 30 minutes, and then the conversion rate was read using the Caliper EZ reader. The compound inhibition rate was determined using the calculation formula and the data was fitted using Graphpad to derive the IC50 value for the compounds of this application.
Chain of BTK kinase (Q06187 whole entry): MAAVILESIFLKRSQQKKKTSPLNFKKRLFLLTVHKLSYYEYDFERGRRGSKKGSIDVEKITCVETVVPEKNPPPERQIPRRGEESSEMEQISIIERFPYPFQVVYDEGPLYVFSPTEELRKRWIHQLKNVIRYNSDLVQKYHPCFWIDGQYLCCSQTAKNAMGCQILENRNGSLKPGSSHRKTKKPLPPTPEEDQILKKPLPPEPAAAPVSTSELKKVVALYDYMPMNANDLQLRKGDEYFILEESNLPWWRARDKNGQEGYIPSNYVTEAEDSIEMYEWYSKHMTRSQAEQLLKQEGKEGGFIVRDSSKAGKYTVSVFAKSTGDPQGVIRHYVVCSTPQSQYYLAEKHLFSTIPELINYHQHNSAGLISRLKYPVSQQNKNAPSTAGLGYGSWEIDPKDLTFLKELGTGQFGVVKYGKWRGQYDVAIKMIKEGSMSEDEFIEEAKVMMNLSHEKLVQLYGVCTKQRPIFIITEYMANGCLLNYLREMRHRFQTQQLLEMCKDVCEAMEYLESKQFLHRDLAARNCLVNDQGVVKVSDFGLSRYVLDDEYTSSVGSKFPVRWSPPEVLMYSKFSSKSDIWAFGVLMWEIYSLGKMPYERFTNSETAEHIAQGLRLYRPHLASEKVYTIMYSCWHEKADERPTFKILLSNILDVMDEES

For experiment [1], the system named is tumour cells (A20 5E6 cells). Nature of the experiment: Inhibitory effect on tumour cell proliferation (CCK8). The format is cell-based. The conditions noted are these: CCK8 absorbance, read-out: Inhibitory effect of the compound on cell proliferation IC50. Here is the method:
This experiment was to determine the effect of the compound on cell proliferation.
To determine the inhibitory effect of the compound on the proliferation of tumour cells, tumour cells (A20 5E6 cells) were cultured to a certain amount and seeded into 96-well plates. […] The absorbance value was measured after the addition of CCK8 and 2 h incubation to determine the inhibitory effect of the compound on cell proliferation. The IC50 value of the compound was obtained by data fitted with Graphpad.

Molecules are shown by their SMILES.

With `C[C@H]1CN(C2COC2)CCN1c1ccc(Nc2cc(-c3ccnc(N4CCn5c6c(c(N)c5C4=O)CC(C)(C)C6)c3CO)cn(C)c2=O)nc1` [Example H25, (S)-9-amino-2-(3′-(hydroxymethyl)-1-methyl-5-((5-(2-methyl-4-(oxetan-3-yl)piperazin-1-yl)pyridin-2-yl)amino)-6-oxo-1,6-dihydro-[3,4′-bipyridin]-2′-yl)-7,7-dimethyl-3,4,7,8-tetrahydro-2H-cyclopenta[4,5]pyrrolo[1,2-a]pyrazin-1(6H)-one], the IC50 at BTK kinase was 0.44 nM. On the same count and under the same terms, the same measure for `CNc1c2c(n3c1C(=O)N(c1nccc(-c4cc(Nc5ccc(N6CCN(C7COC7)C[C@@H]6C)cn5)c(=O)n(C)c4)c1CO)CC3)CC(C)(C)C2` [Example H26, (S)-2-(3′-(hydroxymethyl)-1-methyl-5-((5-(2-methyl-4-(oxetan-3-yl)piperazin-1-yl)pyridin-2-yl)amino)-6-oxo-1,6-dihydro-[3,4′-bipyridin]-2′-yl)-9-methylamino-7,7-dimethyl-3,4,7,8-tetrahydro-2H-cyclopenta[4,5]pyrrolo[1,2-a]pyrazin-1(6H)-one]: 0.46 nM. Consider `Cn1cc(-c2ccnc(N3CCn4c5c(c(F)c4C3=O)CC(C)(C)C5)c2CO)cc(Nc2ccc(N3CCN(C4COC4)CC3)cc2)c1=O` [Example H15, 9-fluoro-2-(3′-(hydroxymethyl)-1-methyl-5-((4-(4-(oxetan-3-yl)piperazin-1-yl)phenyl)amino)-6-oxo-1,6-dihydro-[3,4′-bipyridin]-2′-yl)-7,7-dimethyl-3,4,7,8-tetrahydro-2H-cyclopenta[4,5]pyrrolo[1,2-a]pyrazin-1(6H)-one], for which the results for the IC50 (in experiment [1]; at BTK kinase) were 23 nM and 0.68 nM, respectively. For the compound `CN1CCN(c2ccc(Nc3cc(-c4ccnc(N5CCn6c(cc7c6CC(C)(C)C7)C5=O)c4CO)nc4ccoc34)nc2)CC1` [Example H08, 2-(3-(hydroxymethyl)-4-(7-((5-(4-methylpiperazin-1-yl)pyridin-2-yl)amino)furo[3,2-b]pyridin-5-yl)pyridin-2-yl)-7,7-dimethyl-3,4,7,8-tetrahydro-2H-cyclopenta[4,5]pyrrolo[1,2-a]pyrazin-1(6H)-one], the IC50 worked out at 29 nM in experiment [1] and 0.23 nM at BTK kinase. For `Cn1cc(-c2ccnc(N3CCn4c5c(c(F)c4C3=O)CC(C)(C)C5)c2CO)cc(Nc2ccc(N3CCN(C4COC4)CC3)nc2)c1=O` [Example H16, 9-fluoro-2-(3′-(hydroxymethyl)-1-methyl-5-((6-(4-(oxetan-3-yl)piperazin-1-yl)pyridin-3-yl)amino)-6-oxo-1,6-dihydro-[3,4′-bipyridin]-2′-yl)-7,7-dimethyl-3,4,7,8-tetrahydro-2H-cyclopenta[4,5]pyrrolo[1,2-a]pyrazin-1(6H)-one] the same measures were 47 nM and 0.17 nM. For `Cc1c2c(n3c1C(=O)N(c1nccc(-c4cc(Nc5ccc(N6CCN(C7COC7)C[C@@H]6C)cn5)c(=O)n(C)c4)c1CO)CC3)CC(C)(C)C2` [Example H03, (S)-2-(3′-(hydroxymethyl)-1-methyl-5-((5-(2-methyl-4-(oxetan-3-yl)piperazin-1-yl)pyridin-2-yl)amino)-6-oxo-1,6-dihydro-[3,4′-bipyridin]-2′-yl)-7,7,9-trimethyl-3,4,7,8-tetrahydro-2H-cyclopenta[4,5]pyrrolo[1,2-a]pyrazin-1(6H)-one], the IC50 in experiment [1] came to 61 nM; on BTK kinase, 0.14 nM. For the compound `CC(C)Oc1c2c(n3c1C(=O)N(c1nccc(-c4cc(Nc5ccc(N6CCN(C7COC7)C[C@@H]6C)cn5)c(=O)n(C)c4)c1CO)CC3)CC(C)(C)C2` [Example H24, (S)-2-(3′-(hydroxymethyl)-1-methyl-5-((5-(2-methyl-4-(oxetan-3-yl)piperazin-1-yl)pyridin-2-yl)amino)-6-oxo-1,6-dihydro-[3,4′-bipyridin]-2′-yl)-9-isopropoxy-7,7-dimethyl-3,4,7,8-tetrahydro-2H-cyclopenta[4,5]pyrrolo[1,2-a]pyrazin-1(6H)-one], the IC50 on BTK kinase turned out to be 0.65 nM. For the compound `C[C@H]1CN(C2COC2)CCN1c1ccc(Nc2cc(-c3ccnc(N4CCn5c6c(c(Cl)c5C4=O)CC(C)(C)C6)c3CO)cn(C)c2=O)nc1` [Example H02, (S)-9-chloro-2-(3′-(hydroxymethyl)-1-methyl-5-((5-(2-methyl-4-(oxetan-3-yl)piperazin-1-yl)pyridin-2-yl)amino)-6-oxo-1,6-dihydro-[3,4′-bipyridin]-2′-yl)-7,7-dimethyl-3,4,7,8-tetrahydro-2H-cyclopenta[4,5]pyrrolo[1,2-a]pyrazin-1(6H)-one], the IC50 in experiment [1] was 23 nM; on BTK kinase it was 0.59 nM. Turning to `C[C@H]1CN(C2COC2)CCN1c1ccc(Nc2cc(-c3cc(C#N)cc(N4CCn5c(cc6c5CC(C)(C)C6)C4=O)c3CO)cn(C)c2=O)nc1` [Example H05, (S)-3-(7,7-dimethyl-1-oxo-1,3,4,6,7,8-hexahydro-2H-cyclopenta [4,5]pyrrolo[1,2-a]pyrazin-2-yl)-4-(hydroxymethyl)-5-(1-methyl-5-((5-(2-methyl-4-(oxetan-3-yl)piperazin-1-yl)pyridin-2-yl)amino)-6-oxo-1,6-dihydropyridin-3-yl) benzonitrile], the IC50 stood at 23 nM in experiment [1] and 0.69 nM at BTK kinase. The like results for `CN1CC2(CCN(c3ccc(Nc4cc(-c5ccnc(N6CCn7c8c(c(F)c7C6=O)CC(C)(C)C8)c5CO)cn(C)c4=O)nc3)CC2)C1` [Example H12, 9-fluoro-2-(3′-(hydroxymethyl)-1-methyl-5-((5-(2-methyl-2,7-diazaspiro[3.5]nonan-7-yl)pyridin-2-yl)amino)-6-oxo-1,6-dihydro-[3,4′-bipyridin]-2′-yl)-7,7-dimethyl-3,4,7,8-tetrahydro-2H-cyclopenta[4,5]pyrrolo[1,2-a]pyrazin-1(6H)-one] were, in that order, 13 nM and 0.49 nM. In the case of `CCOc1c2c(n3c1C(=O)N(c1nccc(-c4cc(Nc5ccc(N6CCN(C7COC7)C[C@@H]6C)cn5)c(=O)n(C)c4)c1CO)CC3)CC(C)(C)C2` [Example H20, (S)-9-ethoxy-2-(3′-(hydroxymethyl)-1-methyl-5-((5-(2-methyl-4-(oxetan-3-yl)piperazin-1-yl)pyridin-2-yl)amino)-6-oxo-1,6-dihydro-[3,4′-bipyridyl]-2′-yl)-7,7-dimethyl-3,4,7,8-tetrahydro-2H-cyclopenta[4,5]pyrrolo[1,2-a]pyrazin-1(6H)-one], the IC50 at BTK kinase was found to be 0.55 nM. Regarding `C[C@H]1CN(C2COC2)CCN1c1ccc(Nc2cc(-c3ccnc(N4CCn5c6c(c(OC7CC7)c5C4=O)CC(C)(C)C6)c3CO)cn(C)c2=O)nc1` [Example H23, (S)-9-cyclopropoxy-2-(3′-(hydroxymethyl)-1-methyl-5-((5-(2-methyl-4-(oxetan-3-yl)piperazin-1-yl)pyridin-2-yl)amino)-6-oxo-1,6-dihydro-[3,4′-bipyridin]-2′-yl)-7,7-dimethyl-3,4,7,8-tetrahydro-2H-cyclopenta[4,5]pyrrolo[1,2-a]pyrazin-1(6H)-one], on BTK kinase, the IC50 was 0.51 nM. With `C=CC(=O)N1CCC[C@@H](n2nc(-c3ccc(Oc4ccccc4)cc3)c3c(N)ncnc32)C1` [Ibrutinib, reference compound], in experiment [1], the IC50 amounted to 87 nM.

With `C[C@H]1CN(C2COC2)CCN1c1ccc(Nc2cc(-c3ccc(C#N)c(N4CCn5c(cc6c5CC(C)(C)C6)C4=O)c3CO)cn(C)c2=O)nc1` [Example H06, (S)-2-(7,7-dimethyl-1-oxo-1,3,4,6,7,8-hexahydro-2H-cyclopenta [4,5]pyrrolo[1,2-a]pyrazin-2-yl)-3-(hydroxymethyl)-4-(1-methyl-5-((5-(2-methyl-4-(oxetan-3-yl)piperazin-1-yl)pyridin-2-yl)amino)-6-oxo-1,6-dihydropyridin-3-yl) benzonitrile], the IC50 in experiment [1] came out at 31 nM; on BTK kinase, 0.41 nM. For `Cn1cc(-c2ccnc(N3CCn4c5c(c(F)c4C3=O)CC(C)(C)C5)c2CO)cc(Nc2ccc(N3CCN(C4COC4)CC3)cn2)c1=O` [Example H10, 9-fluoro-2-(3′-(hydroxymethyl)-1-methyl-5-((5-(4-(oxetan-3-yl)piperazin-1-yl)pyridin-2-yl)amino)-6-oxo-1,6-dihydro-[3,4′-bipyridin]-2′-yl)-7,7-dimethyl-3,4,7,8-tetrahydro-2H-cyclopenta[4,5]pyrrolo[1,2-a]pyrazin-1(6H)-one] the same measures were 21 nM and 0.21 nM. Regarding `C[C@H]1CN(C2COC2)CCN1c1ccc(Nc2cc(-c3ccnc(N4CCn5c6c(c(C(F)(F)F)c5C4=O)CC(C)(C)C6)c3CO)cn(C)c2=O)nc1` [Example H19, (S)-2-(3′-(hydroxymethyl)-1-methyl-5-((5-(2-methyl-4-(oxetan-3-yl)piperazin-1-yl)pyridin-2-yl)amino)-6-oxo-1,6-dihydro-[3,4′-bipyridin]-2′-yl)-7,7-dimethyl-9-(trifluoromethyl)-3,4,7,8-hexahydro-2H-cyclopenta[4,5]pyrrolo[1,2-a]pyrazine-1(6H)-one], the IC50 at BTK kinase was 0.52 nM. On the same count and under the same terms, the same measure for `C[C@H]1CN(C2COC2)CCN1c1ccc(Nc2cc(-c3ccnc(N4CCn5c6c(c(C#N)c5C4=O)CC(C)(C)C6)c3CO)cn(C)c2=O)nc1` [Example H18, (S)-2-(3′-(hydroxymethyl)-1-methyl-5-((5-(2-methyl-4-(oxetan-3-yl)piperazin-1-yl)pyridin-2-yl)amino)-6-oxo-1,6-dihydro-[3,4′-bipyridin]-2′-yl)-7,7-dimethyl-1-oxo-1,3,4,6,7,8-hexahydro-2H-cyclopenta[4,5]pyrrolo[1,2-a]pyrazine-9-carbonitrile]: 0.65 nM.
